Test results as given in patent US20160228434A1, “TREATMENT OF DISEASES CAUSED BY ABNORMAL LYMPHOCYTE FUNCTION WITH AN HDAC6 INHIBITOR” (priority 2013, published 2016).
“Also recorded” adds a separate entry of the source.

Key:
Assay type in all cases: in vivo
splenic B cells = experiment: Splenic B cell developmental stages by flow cytometry in treated NZB/W mice; conditions: either low (5 mg/kg) or high (20 mg/kg) dose
Experimental: (§1) NZB/W mice were injected intraperitoneally 5 days/week with the vehicle control (DMSO), ACY-738 treatment at 5 mg/kg (low-dose), or ACY-738 treatment at 20 mg/kg (high-dose) beginning at 22-weeks-of-age until euthanization at 38 weeks-of-age. ACY-738 was received from Acetylon Pharmaceuticals for use in all studies. Proteinuria and weight were measured every 2 weeks and blood was collected every four weeks for sera analysis. Proteinuria was measured by a standard semi-quantitative test using Siemens Uristix dipsticks (Siemens Healthcare, Deerfield, Ill., USA). Results were quantified according to the manufacturer's instructions and scored as follows: dipstick reading of 0 mg/dL=0, trace=1, 30-100 mg/dL=2, 100-300 mg/dL=3, 300-2000 mg/dL=4, and 2000+ mg/dL=5.
Following euthanization, spleens were removed and single-cell suspensions of splenocytes were incubated with PerCP710 conjugated IgM, FITC conjugated AA4.1, PE conjugated CD23, and APC conjugated CD21 anti-mouse mAbs (eBioscience, San Diego, Calif., USA). IgM^+ cells were analyzed for the expression of AA4.1, CD23 and CD21 and divided into the following developmental stages using flow cytometry: T1 (IgM^+ CD23^− AA4.1^+ CD21^−), T2 (IgM^hi CD23^+ AA4.1^+ CD21^+), T3 (IgM^lo CD23^+ AA4.1^+ CD21^+), F0 (IgM^+ CD23^+ AA4.1^− CD21^−), MZ (IgM^+ CD23^− AA4.1^− CD21^+) or B1 (IgM^+ CD23^− AA4.1^− CD21^−). […]

[1] = system: peripheral B cells (IgM+B220+); experiment: Peripheral B cells by flow cytometry in treated NZB/W mice; conditions: 38-week-old NZB/W mice, either low (5 mg/kg) or high (20 mg/kg) dose
Experimental: as §1
Blood was collected prior to euthanization using retro-orbital bleeding. RBCs from the peripheral blood were lysed and single cell suspensions were labeled using FITC-conjugated B220 and PerCep710 conjugated IgM anti-mouse mAbs (eBioscience, San Diego, Calif., USA). Mature B cells were identified as IgM^+B220^+ cells. Flow cytometry data was analyzed using FlowJo.
Similarly, a single-cell suspension of peripheral B cells was obtained from the blood of 38-week-old NZB/W mice and stained for IgM and B220. […]

NZB/W mice [2] = experiment: Survival rate and disease progression (body weight, proteinuria, spleen weight) in NZB/W mice; conditions: for proteinuria: every 2 weeks
Experimental: as §1
However, half of the NZB/W mice receiving the vehicle control alone died before termination of the study at 38 weeks-of-age (FIG. 6 A). Body weight increased as NZB/W mice aged following treatment with ACY-738. Vehicle control-treated NZB/W mice experienced weight loss concomitantly with increased proteinuria (FIG. 6 B).
Throughout the treatment period, NZB/W mice were monitored for changes in proteinuria and body weight.
Because SLE is characterized by enlargement of the spleen, splenomegaly was assessed in mice following euthanization by determining the total spleen weight along with the spleen: body weight ratio. Both spleen weight and spleen: body weight ratio were decreased following HDAC6 inhibition in a concentration dependent manner (FIG. 6 D-E).

NZB/W mice [3] = experiment: SLE-associated renal pathology (PAS-stained kidney sections, glomerular score) in treated NZB/W mice
Experimental: as §1
At the time of euthanization, the kidneys were removed and cut in half. One half of the kidney from each mouse was fixed in formalin, embedded in paraffin, sectioned, and stained with Periodic acid-Schiff (PAS). Kidney sections were scored (0-4) for glomerular proliferation, inflammation, crescent formation, necrosis, and by a pathologist, Dr. David Caudell, in a blinded manner.
In order to assess renal disease, kidney sections were embedded in paraffin and stained by PAS. […] NZB/W mice treated with DMSO alone had thickened, irregular glomerular basement membranes, increased cellularity, fibrosis and crescent formation (see FIG. 11 A). […] Sections were assessed for glomerular proliferation, inflammation, number of nuclei per glomerulus, crescent formation, and fibrosis by a blinded pathologist, and a glomerular score (0-4) was assigned. NZB/W mice that were treated with the vehicle control alone received an average score of 4 compared to an average score of 2 from mice that received the high-dose of ACY-738 (FIG. 11 C).

[4] = NZB/W mice after euthanization at 38 weeks, 5 and 20 mg/kg, concentration dependent

In the case of O=C(NO)c1cnc(NC2(c3ccccc3)CC2)nc1 [ACY-738], the “splenic B cell populations (T1, T2, T3, F0, MZ, B1)” value (splenic B cells) is reported as “did not significantly affect; also recorded: no effect”, the “percentage of peripheral B cells (IgM+B220+)” value [1] is reported as “no effect” and the spleen weight (NZB/W mice [2]; [4]) is reported as “decreased”. The “spleen: body weight ratio” value (NZB/W mice [2]; [4]) was “decreased”, the body weight (NZB/W mice [2]; NZB/W mice, 22-38 weeks-of-age, vehicle mice lost weight) was “increased” and the survival (NZB/W mice [2]; NZB/W mice, high (20 mg/kg) or low (5 mg/kg) dose, to 38 weeks-of-age, half of vehicle mice died) was “survived to the completion of the study”. For the same molecule, the proteinuria (NZB/W mice [2]; NZB/W mice, high dose 20 mg/kg, 22-38 weeks-of-age, 20 mg/kg) was “prevented proteinuria from increasing; also recorded: significantly attenuated”, the proteinuria (NZB/W mice [2]; NZB/W mice, low dose 5 mg/kg, 22-38 weeks-of-age) was “gradually increased” and the kidney pathology (NZB/W mice [3]; 5 mg/kg, PAS-stained sections) was “did not significantly alter”. For the same molecule, the SLE renal pathology (NZB/W mice [3]; 20 mg/kg, PAS-stained sections, lack of fibrosis and crescent bodies) was “significantly reduced” and the “average glomerular score (0-4)” value (NZB/W mice [3]; high dose (20 mg/kg), vehicle control average score 4) was 2.
